Like-named read-outs stand apart in the source and are kept apart here.
Assays:
HIV-1 RT K103N [1] = conditions: FEP/MC, relative to efavirenz; cited from earlier work
HIV-1 RT Y188L [2] = conditions: FEP/MC, relative to efavirenz; cited from earlier work
HIV-1 RT L100I [3] = conditions: FEP/MC, relative to nevirapine; cited from earlier work
HIV-1 RT Y181C [4] = conditions: FEP/MC, relative to nevirapine; cited from earlier work
HIV-1 RT K103N [5] = conditions: relative to efavirenz; cited from earlier work
HIV-1 RT Y188L [6] = conditions: relative to efavirenz; cited from earlier work
HIV-1 RT L100I [7] = conditions: relative to nevirapine; cited from earlier work
HIV-1 RT Y181C [8] = conditions: relative to nevirapine; cited from earlier work
HIV-1 protease [9] = conditions: cited from earlier work
HIV-1 protease [10] = conditions: cited from earlier work; remark: listed apart in the source
[11] = test system: HIV-1 infected human MT-2 cells; conditions: infected MT-2 human T-cell assay; cited from earlier work
HIV-1 in HeLa cells = test: Virus inhibition assay; assay type: cell-based; conditions: 48 hours
HIV-1 in GHOST cells = test: Virus inhibition assay; assay type: cell-based; conditions: 48 hours

Cc1cc(C#N)cc(C)c1Oc1nc(Nc2ccc(C#N)cc2)nc(N)c1Br [etravirine]
ΔΔG (computed), K103N (HIV-1 RT K103N [1]): -2.4 kcal/mol
ΔΔG (computed), Y188L (HIV-1 RT Y188L [2]): -2.4 kcal/mol
ΔΔG (predicted), L100I (HIV-1 RT L100I [3]): -0.9 kcal/mol
ΔΔG (predicted), Y181C (HIV-1 RT Y181C [4]): -2.6 kcal/mol
ΔΔG (experimental), K103N (HIV-1 RT K103N [5]): -2.00 ± 0.40 kcal/mol
ΔΔG (experimental), Y188L (HIV-1 RT Y188L [6]): -2.07 ± 0.23 kcal/mol
ΔΔG (experimental), L100I (HIV-1 RT L100I [7]): -2.36 ± 0.42 kcal/mol
ΔΔG (experimental), Y181C (HIV-1 RT Y181C [8]): -1.36 ± 0.28 kcal/mol

Ac-Thr-Ile-Nle-ψ [CH2-NH]-Nle-Gln-Arg-NH2 [MVT-101]
decrease of binding, single Nle to Met mutation (HIV-1 protease [9]): 0.7 kcal/mol

Ala-Ala-Phe[CH(OH)CH2]Gly-Val-Val-OMe [HEI]
ΔΔGbind (computed), central hydroxyl S to R (HIV-1 protease [9]; FEP/MD): 3.37 ± 0.64 kcal/mol
predicted enhancement of binding, Gly to Nle mutation (HIV-1 protease [9]): 1.7 kcal/mol
ΔΔGbind (experimental), central hydroxyl S to R (HIV-1 protease [10]): 2.6 kcal/mol

Cc1ccnc2c1NC(=O)c1cccnc1N2C1CC1 [nevirapine]
EC50 [11]: 110 nM

Nc1noc(C2CN3CCC2C3)n1 (stereo not shown) [oxadiazole]
EC50 [11]: inactive

2,6-dichlorobenzamido-1H-indole [Compound 5]
HIV-1 inhibition (reduction in viral infectivity) (HIV-1 in HeLa cells; 0.2 μM): no appreciable inhibition
HIV-1 inhibition (HIV-1 in HeLa cells; 10 μM): 30%
HIV-1 inhibition (reduction in viral infectivity) (HIV-1 in GHOST cells; 0.2 μM): no appreciable inhibition
HIV-1 inhibition (HIV-1 in GHOST cells; 10 μM): 30%
viability (GHOST cells; 10 μM): 81%
viability (GHOST cells; 50 μM): 46%

Ac-Ser-Leu-Asn-(Phe-Hea-Pro)-Ile-Val-OMe [JG-365]
ΔΔGbind (calculated), heptapeptide → hexapeptide (deletion of valine) (HIV-1 protease [9]; FEP/MD, averaged for R and S): 3.3 ± 1.1 kcal/mol
ΔΔGbind (experimental), heptapeptide → hexapeptide (HIV-1 protease [10]; from Ki values for an equilibrium mixture of R and S configurations): 3.8 ± 1.3 kcal/mol

Source: PMC3605731 (Current pharmaceutical design, 2012)
